Columns and labels:
Experiment in all cases: KINOMEscan competition binding
Settings in all cases: compound 1.0 µM
[1] = tested on: ABL1 (human), P00519 [F317L]
ALK (human) = ALK (human) (UniProt Q9UM73)
ANKK1 (human) = ANKK1 (human) (UniProt Q8NFD2)
BMX (human) = BMX (human) (UniProt P51813)
[2] = tested on: BRAF (human), P15056 [V600E]
CAMK2D (human) = CAMK2D (human) (UniProt Q13557)
CDK18 (human) = CDK18 (human) (UniProt Q07002)
CDKL2 (human) = CDKL2 (human) (UniProt Q92772)
CLK1 (human) = CLK1 (human) (UniProt P49759)
DAPK1 (human) = DAPK1 (human) (UniProt P53355)
DAPK3 (human) = DAPK3 (human) (UniProt O43293)
DYRK1B (human) = DYRK1B (human) (UniProt Q9Y463)
DYRK2 (human) = DYRK2 (human) (UniProt Q92630)
[3] = tested on: EGFR (human), P00533 [752-759 del]
EPHB4 (human) = EPHB4 (human) (UniProt P54760)
GRK7 (human) = GRK7 (human) (UniProt Q8WTQ7)
[4] = biological target: JAK1 JH2 pseudokinase (human) (UniProt P23458)
[5] = biological target: JAK3 JH1 catalytic (human) (UniProt P52333)
[6] = tested on: KIT (human), P10721 [D816V]
LATS2 (human) = LATS2 (human) (UniProt Q9NRM7)
MAP2K6 (human) = MAP2K6 (human) (UniProt P52564)
MAP3K15 (human) = MAP3K15 (human) (UniProt Q6ZN16)
MAP3K3 (human) = MAP3K3 (human) (UniProt Q99759)
MAP3K7 (human) = MAP3K7 (human) (UniProt O43318)
MAP4K1 (human) = MAP4K1 (human) (UniProt Q92918)
MAPK9 (human) = MAPK9 (human) (UniProt P45984)
NTRK1 (human) = NTRK1 (human) (UniProt P04629)
PAK3 (human) = PAK3 (human) (UniProt O75914)
PLK1 (human) = PLK1 (human) (UniProt P53350)
PRKAA1 (human) = PRKAA1 (human) (UniProt Q13131)
PRKCE (human) = PRKCE (human) (UniProt Q02156)
PRKCQ (human) = PRKCQ (human) (UniProt Q04759)
PRKD1 (human) = PRKD1 (human) (UniProt Q15139)
RIOK3 (human) = RIOK3 (human) (UniProt O14730)
RIPK4 (human) = RIPK4 (human) (UniProt P57078)
RPS6KA6 KD2 (human) = RPS6KA6 KD2 (human) (UniProt Q9UK32)
SIK3 (human) = SIK3 (human) (UniProt Q9Y2K2)
STK32B (human) = STK32B (human) (UniProt Q9NY57)
TGFBR2 (human) = TGFBR2 (human) (UniProt P37173)
ULK3 (human) = ULK3 (human) (UniProt Q6PHR2)
Sequence of ULK3 (human) (Q6PHR2 whole entry, looked up): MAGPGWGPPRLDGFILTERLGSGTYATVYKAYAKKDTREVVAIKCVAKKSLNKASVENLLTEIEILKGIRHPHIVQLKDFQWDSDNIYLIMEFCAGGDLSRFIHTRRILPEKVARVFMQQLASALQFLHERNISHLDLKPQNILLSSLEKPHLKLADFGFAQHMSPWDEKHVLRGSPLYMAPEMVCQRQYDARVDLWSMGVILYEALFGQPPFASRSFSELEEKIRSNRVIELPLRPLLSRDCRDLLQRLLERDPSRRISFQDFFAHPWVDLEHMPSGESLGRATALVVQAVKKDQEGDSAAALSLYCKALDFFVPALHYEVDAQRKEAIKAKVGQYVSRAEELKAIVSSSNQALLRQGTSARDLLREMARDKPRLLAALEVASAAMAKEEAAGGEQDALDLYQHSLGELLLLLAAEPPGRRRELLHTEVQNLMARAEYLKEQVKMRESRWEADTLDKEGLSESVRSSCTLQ

Sequence of DYRK2 (human) (Q92630 whole entry, looked up): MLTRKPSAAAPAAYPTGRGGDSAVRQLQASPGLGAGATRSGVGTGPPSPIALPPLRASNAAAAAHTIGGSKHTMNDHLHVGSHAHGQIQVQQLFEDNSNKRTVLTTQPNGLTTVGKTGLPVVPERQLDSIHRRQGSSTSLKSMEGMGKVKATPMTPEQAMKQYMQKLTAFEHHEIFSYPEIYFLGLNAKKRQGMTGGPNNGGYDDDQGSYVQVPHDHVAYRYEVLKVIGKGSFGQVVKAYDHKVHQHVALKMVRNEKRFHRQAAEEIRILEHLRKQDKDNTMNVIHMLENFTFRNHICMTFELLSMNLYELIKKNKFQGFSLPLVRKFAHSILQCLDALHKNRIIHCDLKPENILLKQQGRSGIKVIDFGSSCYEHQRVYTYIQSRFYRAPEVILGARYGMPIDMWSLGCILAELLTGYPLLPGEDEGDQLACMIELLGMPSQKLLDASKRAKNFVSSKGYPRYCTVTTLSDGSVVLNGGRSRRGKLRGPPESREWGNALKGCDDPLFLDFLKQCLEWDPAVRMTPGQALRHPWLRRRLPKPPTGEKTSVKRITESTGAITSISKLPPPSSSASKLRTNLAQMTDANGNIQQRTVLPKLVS
Sequence of CLK1 (human) (P49759 whole entry, looked up): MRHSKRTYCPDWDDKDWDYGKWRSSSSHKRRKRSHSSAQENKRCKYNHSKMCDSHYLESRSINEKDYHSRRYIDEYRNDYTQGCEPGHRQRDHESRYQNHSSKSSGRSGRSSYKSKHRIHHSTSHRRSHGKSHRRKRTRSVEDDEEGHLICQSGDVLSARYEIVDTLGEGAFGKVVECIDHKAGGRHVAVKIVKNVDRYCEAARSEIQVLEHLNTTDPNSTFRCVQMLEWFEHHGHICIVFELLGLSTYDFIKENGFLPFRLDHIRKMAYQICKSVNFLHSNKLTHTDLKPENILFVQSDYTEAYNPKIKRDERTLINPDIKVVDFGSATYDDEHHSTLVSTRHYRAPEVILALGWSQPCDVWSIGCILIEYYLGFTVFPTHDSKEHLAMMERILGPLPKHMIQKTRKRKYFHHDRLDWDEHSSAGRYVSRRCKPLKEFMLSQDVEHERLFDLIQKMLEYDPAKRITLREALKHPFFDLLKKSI
Sequence of MAP2K6 (human) (P52564 whole entry, looked up): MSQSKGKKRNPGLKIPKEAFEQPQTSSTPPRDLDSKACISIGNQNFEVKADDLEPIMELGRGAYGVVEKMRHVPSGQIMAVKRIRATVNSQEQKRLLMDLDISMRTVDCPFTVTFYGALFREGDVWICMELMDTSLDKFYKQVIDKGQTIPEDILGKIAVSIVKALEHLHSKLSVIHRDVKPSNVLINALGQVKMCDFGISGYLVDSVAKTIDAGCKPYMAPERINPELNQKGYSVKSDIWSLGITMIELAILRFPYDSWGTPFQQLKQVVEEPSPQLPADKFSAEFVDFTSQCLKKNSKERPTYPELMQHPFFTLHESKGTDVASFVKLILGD
Sequence of ABL1 (human), P00519 [F317L] (P00519 whole entry F317L, looked up): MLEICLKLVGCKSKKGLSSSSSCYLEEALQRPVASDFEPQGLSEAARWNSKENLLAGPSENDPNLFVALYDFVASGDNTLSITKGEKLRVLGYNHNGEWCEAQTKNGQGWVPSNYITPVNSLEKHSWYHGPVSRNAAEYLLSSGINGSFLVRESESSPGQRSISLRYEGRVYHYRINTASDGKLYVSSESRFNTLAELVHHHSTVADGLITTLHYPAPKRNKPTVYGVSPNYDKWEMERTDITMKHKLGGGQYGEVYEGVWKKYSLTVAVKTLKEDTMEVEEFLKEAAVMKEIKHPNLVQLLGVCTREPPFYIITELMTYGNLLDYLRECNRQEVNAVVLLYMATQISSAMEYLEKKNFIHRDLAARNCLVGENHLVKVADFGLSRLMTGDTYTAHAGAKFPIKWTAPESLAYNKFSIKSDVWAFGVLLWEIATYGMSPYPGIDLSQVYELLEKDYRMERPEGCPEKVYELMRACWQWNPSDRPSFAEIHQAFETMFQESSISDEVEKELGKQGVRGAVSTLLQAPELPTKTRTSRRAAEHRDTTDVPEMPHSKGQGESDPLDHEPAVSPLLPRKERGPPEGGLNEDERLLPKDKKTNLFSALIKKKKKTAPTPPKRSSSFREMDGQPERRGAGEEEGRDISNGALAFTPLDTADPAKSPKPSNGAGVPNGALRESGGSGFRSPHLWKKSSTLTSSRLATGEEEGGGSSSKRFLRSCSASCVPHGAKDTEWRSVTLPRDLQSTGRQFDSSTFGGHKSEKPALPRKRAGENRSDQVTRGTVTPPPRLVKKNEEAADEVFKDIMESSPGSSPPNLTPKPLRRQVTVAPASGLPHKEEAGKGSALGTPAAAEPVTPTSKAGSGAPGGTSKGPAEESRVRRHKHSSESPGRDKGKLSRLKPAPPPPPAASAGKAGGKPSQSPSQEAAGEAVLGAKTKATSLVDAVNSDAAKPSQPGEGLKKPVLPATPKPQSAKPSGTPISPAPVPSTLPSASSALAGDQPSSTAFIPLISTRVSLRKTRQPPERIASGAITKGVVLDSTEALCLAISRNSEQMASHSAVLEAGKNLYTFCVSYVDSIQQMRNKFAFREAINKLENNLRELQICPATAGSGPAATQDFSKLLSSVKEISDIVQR
Sequence of KIT (human), P10721 [D816V] (P10721 whole entry D816V, looked up): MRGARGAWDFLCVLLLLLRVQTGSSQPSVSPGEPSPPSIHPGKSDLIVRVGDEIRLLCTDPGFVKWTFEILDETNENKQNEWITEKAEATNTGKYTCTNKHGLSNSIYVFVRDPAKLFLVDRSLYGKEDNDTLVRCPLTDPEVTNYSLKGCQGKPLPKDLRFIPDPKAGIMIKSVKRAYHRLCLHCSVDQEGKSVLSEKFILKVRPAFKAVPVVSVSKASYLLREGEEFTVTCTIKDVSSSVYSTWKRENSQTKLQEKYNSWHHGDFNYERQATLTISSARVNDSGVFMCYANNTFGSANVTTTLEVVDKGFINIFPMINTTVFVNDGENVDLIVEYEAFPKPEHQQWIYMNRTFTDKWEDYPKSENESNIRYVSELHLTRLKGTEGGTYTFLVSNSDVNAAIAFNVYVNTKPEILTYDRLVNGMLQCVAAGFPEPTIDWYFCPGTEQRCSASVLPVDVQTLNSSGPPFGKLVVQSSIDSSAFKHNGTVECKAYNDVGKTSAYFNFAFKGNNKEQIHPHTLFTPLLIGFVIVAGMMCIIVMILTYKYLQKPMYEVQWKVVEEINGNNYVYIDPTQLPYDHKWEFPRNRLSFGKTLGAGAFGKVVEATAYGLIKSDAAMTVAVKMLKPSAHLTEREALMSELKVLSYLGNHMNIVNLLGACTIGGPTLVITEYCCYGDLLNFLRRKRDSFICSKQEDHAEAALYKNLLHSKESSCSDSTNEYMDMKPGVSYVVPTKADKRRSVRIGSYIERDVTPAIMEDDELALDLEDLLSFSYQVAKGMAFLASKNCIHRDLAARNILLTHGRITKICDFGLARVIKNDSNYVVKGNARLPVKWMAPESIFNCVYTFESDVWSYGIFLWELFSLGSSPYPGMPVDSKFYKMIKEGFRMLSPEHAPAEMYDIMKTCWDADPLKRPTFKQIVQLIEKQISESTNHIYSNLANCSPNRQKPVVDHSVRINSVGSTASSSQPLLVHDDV
Sequence of PRKAA1 (human) (Q13131 whole entry, looked up): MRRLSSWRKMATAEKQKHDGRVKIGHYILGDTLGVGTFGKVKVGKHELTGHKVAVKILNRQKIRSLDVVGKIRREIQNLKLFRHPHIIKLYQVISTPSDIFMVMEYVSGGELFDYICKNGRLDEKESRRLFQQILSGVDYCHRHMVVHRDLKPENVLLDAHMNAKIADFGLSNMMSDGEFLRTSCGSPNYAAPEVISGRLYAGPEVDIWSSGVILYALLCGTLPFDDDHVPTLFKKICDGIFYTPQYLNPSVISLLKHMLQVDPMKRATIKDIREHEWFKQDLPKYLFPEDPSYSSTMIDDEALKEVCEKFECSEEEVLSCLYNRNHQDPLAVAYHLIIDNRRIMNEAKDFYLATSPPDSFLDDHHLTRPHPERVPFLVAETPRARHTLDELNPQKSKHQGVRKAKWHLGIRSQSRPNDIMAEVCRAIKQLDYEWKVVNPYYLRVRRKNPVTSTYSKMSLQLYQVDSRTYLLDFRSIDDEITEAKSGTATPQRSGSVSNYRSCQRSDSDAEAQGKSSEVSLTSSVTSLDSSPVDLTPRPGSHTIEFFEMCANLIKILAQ
Sequence of DAPK3 (human) (O43293 whole entry, looked up): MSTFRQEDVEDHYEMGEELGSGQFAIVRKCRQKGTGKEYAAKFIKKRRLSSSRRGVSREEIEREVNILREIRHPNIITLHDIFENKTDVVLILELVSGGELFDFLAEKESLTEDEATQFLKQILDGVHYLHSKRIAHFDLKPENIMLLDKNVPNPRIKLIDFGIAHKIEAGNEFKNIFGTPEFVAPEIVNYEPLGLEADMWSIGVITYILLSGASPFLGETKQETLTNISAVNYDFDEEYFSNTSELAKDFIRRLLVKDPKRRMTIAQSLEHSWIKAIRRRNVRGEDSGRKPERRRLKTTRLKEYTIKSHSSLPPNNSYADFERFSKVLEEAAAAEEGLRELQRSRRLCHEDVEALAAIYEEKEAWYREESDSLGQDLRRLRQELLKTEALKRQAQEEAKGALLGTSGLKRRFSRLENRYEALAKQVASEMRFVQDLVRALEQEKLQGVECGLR

inhibition of binding [1]: 0%
inhibition of binding (ALK (human)): 6%
inhibition of binding (ANKK1 (human)): 0%
inhibition of binding (BMX (human)): 14%
inhibition of binding [2]: 17%
inhibition of binding (CAMK2D (human)): 0%
inhibition of binding (CDK18 (human)): 34%
inhibition of binding (CDKL2 (human)): 0%
inhibition of binding (CLK1 (human)): 58%
inhibition of binding (DAPK1 (human)): 2%
inhibition of binding (DAPK3 (human)): 10%
inhibition of binding (DYRK1B (human)): 0%
inhibition of binding (DYRK2 (human)): 20%
inhibition of binding [3]: 0%
inhibition of binding (EPHB4 (human)): 4%
inhibition of binding (GRK7 (human)): 3%
inhibition of binding [4]: 0%
inhibition of binding [5]: 100%
inhibition of binding [6]: 3%
inhibition of binding (LATS2 (human)): 19%
inhibition of binding (MAP2K6 (human)): 0%
inhibition of binding (MAP3K15 (human)): 0%
inhibition of binding (MAP3K3 (human)): 0%
inhibition of binding (MAP3K7 (human)): 5%
inhibition of binding (MAP4K1 (human)): 0%
inhibition of binding (MAPK9 (human)): 0%
inhibition of binding (NTRK1 (human)): 4%
inhibition of binding (PAK3 (human)): 0%
inhibition of binding (PLK1 (human)): 30%
inhibition of binding (PRKAA1 (human)): 3%
inhibition of binding (PRKCE (human)): 0%
inhibition of binding (PRKCQ (human)): 0%
inhibition of binding (PRKD1 (human)): 36%
inhibition of binding (RIOK3 (human)): 0%
inhibition of binding (RIPK4 (human)): 0%
inhibition of binding (RPS6KA6 KD2 (human)): 18%
inhibition of binding (SIK3 (human)): 0%
inhibition of binding (STK32B (human)): 11%
inhibition of binding (TGFBR2 (human)): 24%
inhibition of binding (ULK3 (human)): 17%
SMILES: Nc1cc(C(F)(F)F)c(-c2cc(N3CCOCC3)nc(N3CCOCC3)n2)cn1
